Measured values: PubChem BioAssay AID742 (SRMLSC, 2007)
The source made the active and inactive calls. How the calls were made is not given here.

Legend:
[1] = inhibitors of Her2 kinase expression, dose response, cell-based, AlphaScreen, CellTiter-Glo viability (AID 742); settings: human cells, Her2 expression AlphaScreen; CTG viability; at 9.62 µM (top of the series)
[2] = system: human cells, Her2 expression AlphaScreen; CTG viability; assay: as above; settings: viability, CellTiter-Glo

Structure (SMILES) | Her2 inhibition [1] | EC50 [2]
c1ccc(-n2c(-c3ccncc3)nnc2N2CCOCC2)cc1 | -8.89% (inactive) | > 9.62 µM
COCc1cc(C)nc(Nc2ccc(C)c(C)c2)c1C#N | 20.5% (inactive) | > 9.62 µM
CCC(=O)OC1(C#CCOc2ccc(OC)cc2)CCN(C)CC1 | -12.2% (inactive) | > 9.62 µM
CCOC(=O)N1CCN(C(=O)CSCc2nc(-c3ccccc3C)oc2C)CC1 | -0.97% (inactive) | > 9.62 µM
O=C(c1ccc(F)cc1)C(CN1CCOCC1)c1ccccc1 (stereo not drawn) | 28.5% (inactive) | > 9.62 µM
[O-][N+]1=c2ccc(Nc3ccccc3)cc2=NC12CCCCC2 | -11% (inactive) | > 9.62 µM
C=C(C)COc1ccc(-c2n[nH]c(C)c2-c2ccccc2OC)c(O)c1 | 4.56% (inactive) | > 9.62 µM
O=C(O)CCc1nn2cc(-c3ccccc3)nc2[nH]c1=O | -26.9% (inactive) | > 9.62 µM
CCCCCn1c(CN2CCCCC2CC)nc2c1c(=O)n(C)c(=O)n2C (stereo not drawn) | -28.1% (inactive) | > 9.62 µM
CC(C)(C)NC(=O)CSc1ncnc2c1nnn2Cc1ccccc1Cl | -10.2% (inactive) | > 9.62 µM
C=CCOC(=O)C1=C(C)Nc2nnnn2C1c1cc(OC)ccc1OC (stereo not drawn) | -8.6% (inactive) | > 9.62 µM
CC(C)(C)OC(=O)NCCc1nnc(S(=O)(=O)Cc2ccc(Cl)cc2Cl)o1 | -15.5% (inactive) | > 9.62 µM
N=C(N)c1c(O)n(C2CCCCC2)c(=O)n(C2CCCCC2)c1=O | -21.5% (inactive) | > 9.62 µM
Cc1cc(-c2ccccc2)nc(=O)[nH]1 | -18.4% (inactive) | > 9.62 µM
CCN(C(=O)COC(=O)c1cc(C)n(-c2ccc(F)cc2)c1C)C1CCS(=O)(=O)C1 (stereo not drawn) | -2.5% (inactive) | > 9.62 µM
COc1ccccc1-c1cc(C(F)(F)F)nc(S(=O)(=O)CCCC(=O)N2CCCCC2C)n1 (stereo not drawn) | -11.6% (inactive) | > 9.62 µM
C=CCSC1=N/C(=C\C=C\c2ccco2)C(=O)S1 | 28.4% (inactive) | > 9.62 µM
Oc1ccc2ccccc2c1C=NCc1cn2ccsc2n1 | -11.2% (inactive) | > 9.62 µM
Cc1cc(NC(=O)CNC(=O)C2CCCCC2)no1 | 12.1% (inactive) | > 9.62 µM
CCOC(=O)N1CCN(c2nnnn2-c2ccccc2)CC1 | -3.51% (inactive) | > 9.62 µM
CC1CN(c2oc(COc3ccc(Cl)cc3Cl)nc2C#N)CC(C)O1 (stereo not drawn) | -17.3% (inactive) | > 9.62 µM
Cn1nnnc1SCC(=O)Nc1c(Cl)cccc1Cl | -18.1% (inactive) | > 9.62 µM
C/C(=N\O)C(=O)C(CN1CCCCC1)CN1CCCCC1 | 15.2% (inactive) | > 9.62 µM
C=CCc1cccc2cc(C(=O)NC)c(=O)oc12 | 3.58% (inactive) | > 9.62 µM
CCOc1ccc(NC(=O)C/C(N)=N/O)cc1 | -1.78% (inactive) | > 9.62 µM
CCOc1ccccc1N(CC(=O)N1CCOCC1)S(=O)(=O)c1ccccc1 | 3.98% (inactive) | > 9.62 µM
Cc1ccccc1-n1nc2c(c1NC(=O)c1cc3ccccc3oc1=O)CS(=O)(=O)C2 | -11.6% (inactive) | > 9.62 µM

Structure (SMILES) | Her2 inhibition [1] | EC50 [2]
Nc1c(S(=O)(=O)c2cccc(Cl)c2)c2nc3ccccc3nc2n1/N=C/c1ccc(O)c(O)c1 | 11.2% (inactive) | > 9.62 µM
CC1(C)CC(=O)C2=C(C1)OC(=O)C2(NC(=O)c1cccs1)C(F)(F)F (stereo not drawn) | -18.5% (inactive) | > 9.62 µM
O=C(Nc1ccc(Cl)cc1)Nc1ccc2c(c1)N1CCN=C1S2 | -7.78% (inactive) | > 9.62 µM
COc1ccc(-c2nc(C(N)=O)c3[nH]c(=O)n(-c4cccc(Cl)c4)c3n2)cc1OC | -17.3% (inactive) | > 9.62 µM
O=S(=O)(CCN1CCN(C(c2ccccc2)c2ccccc2)CC1)C(F)(F)F | -1.03% (inactive) | > 9.62 µM
N#CC(C#N)=c1ccc2c(c1)N1C3=C(CCCC3)CC3CCCCC31N=2 (stereo not drawn) | 24.3% (inactive) | > 9.62 µM
O=C1CC(Sc2nnnn2C2CCCCC2)C(=O)N1c1ccccc1 (stereo not drawn) | -12.8% (inactive) | > 9.62 µM
CCN(CCNC(=O)C1CCN(Cc2nc(-c3cccc(Cl)c3)oc2C)CC1)c1ccccc1 | -54.8% (inactive) | > 9.62 µM
Cc1ccc(S(=O)(=O)CCC(=O)c2ccc(O)cc2O)cc1 | 1.34% (inactive) | > 9.62 µM
COc1ccc(C(=O)c2no[n+]([O-])c2C(=O)c2ccc(OC)cc2)cc1 | -48.2% (inactive) | > 9.62 µM
COc1cc(NS(=O)(=O)c2ccc(C)cc2)c2ncccc2c1 | 18.5% (inactive) | > 9.62 µM
COCCn1c(Cc2ccccc2)nnc1SCC(=O)N(C)C | 6.46% (inactive) | > 9.62 µM
CCOc1ccc(CNc2ccc3c(c2)ncn3C)cc1 | 8.61% (inactive) | > 9.62 µM
N#Cc1ccc(-c2ccco2)nc1SCc1ccccc1 | 14.8% (inactive) | > 9.62 µM
Clc1ccc(CSC2=NCCCN2)cc1Cl | -30.5% (inactive) | > 9.62 µM
COc1cccc(-c2nnn(CC(=O)O)n2)c1 | -1.29% (inactive) | > 9.62 µM
C=CCn1c(=O)c2ccccc2n2c(SCc3cc(=O)n4ccsc4n3)nnc12 | -18.6% (inactive) | > 9.62 µM
CC1(C)CC(=O)NC=C(c2ccccc2)C1 | 0.71% (inactive) | > 9.62 µM
Cc1ccccc1OCCCC(=O)Nc1nccs1 | -6.38% (inactive) | > 9.62 µM
CCOc1ccc(-c2[nH]ncc2Oc2ccccc2OCC)c(O)c1 | 1.97% (inactive) | > 9.62 µM
CCOC(=O)CCS(=O)(=O)c1nc(-c2ccccc2)cc(C(F)(F)F)n1 | 27.6% (inactive) | > 9.62 µM
O=C1C2=C(SCCS2)C(=O)N1CCCO | -25% (inactive) | > 9.62 µM
O=C(NCc1ccco1)C(Cc1ccccc1)N1C(=O)c2ccccc2C1=O (stereo not drawn) | -6.2% (inactive) | > 9.62 µM
O=C(Nc1ccc2c(c1)OCO2)c1cnn2cccnc12 | -5.1% (inactive) | > 9.62 µM
CN1/C(=C/C(=O)c2nc(S(C)(=O)=O)ncc2Cl)C(C)(C)c2ccccc21 | 23.3% (inactive) | > 9.62 µM
COC(=O)CS(=O)(=O)c1nnc([C@H](Cc2ccccc2)NC(=O)OC(C)(C)C)o1 | -2.38% (inactive) | > 9.62 µM
CSCC[C@H](NC(=O)NCc1ccc(F)cc1)C(=O)O | -11.5% (inactive) | > 9.62 µM
